Results: patent US20220193085A1, “METHODS OF THROMBOPROPHYLAXIS” (JANSSEN PHARMACEUTICALS, INC., priority 2020, published 2022)
Values joined by “and” are separate entries in the source; they are usually repeats but may differ in a detail not shown here. Identical values can stand only once. Like-named read-outs stand apart in the source and are kept apart here.

Columns and labels:
factor Xa = assay: UNIVERSE PK/PD: anti-Factor Xa activity vs plasma rivaroxaban concentration; format: in vivo, pediatric patients
Procedure: PT and aPTT were determined using an electromagnetic mechanical clot detection method at ARUP laboratory (Salt Lake City, Utah, USA). The PT assay was performed according to the manufacturers' instructions on the STA Compact Hemostasis Workstation (STA Compact coagulation analyzer) using one PT reagent (STA-Neoplastine CI Plus, Diagnostica Stago, Inc), with an International Sensitivity Index (ISI) of around 1.3. The primary read-out for PT was in seconds, as the International Normalization Ratio (INR) which allows for comparison of PT values regardless of the reagents and instruments used for its determination, is only calibrated and validated for VKA and cannot be used for any other anticoagulant without validation. The PT reportable range is between 10 and 120 seconds. […] The read-out for aPTT is in seconds with a reportable range between 5 and 180 seconds. Anti-Factor Xa activity was determined at Eurofins Biomnis (France). Anti-Factor Xa activity was measured using a one-step reaction based on the inhibitory effect of rivaroxaban against factor Xa's activity of generating thrombin from prothrombin after adding rivaroxaban into the plasma-substrate mixture using the STA-COMPACT MAX2® system (Diagnostica Stago, Asnieres-sur-Seine, France). […] The calibration range of the assay is 35 to 500 ng/mL, and the lower limit of quantification (LLOQ) is 35 ng rivaroxaban/mL. […]

[1] = UNIVERSE primary efficacy outcome: any thrombotic event (CIAC adjudicated); format: in vivo, pediatric patients; conditions: full analysis set
From the text: This study was a prospective, open-label, active-controlled, multicenter study designed to evaluate the PK and PK/PD profiles, safety, and efficacy of rivaroxaban for thromboprophylaxis in pediatric patients 2 to 8 years of age with single ventricle physiology who have completed the Fontan procedure within 4 months prior to enrollment. The trial was approved by the institutional review board of each participating institution, as well as the appropriate national ethics committee. Written informed consent for trial participation was obtained from the parent or guardian of each patient. An Independent Data Monitoring Committee (IDMC) ensured patients' safety throughout the trial. A Central Independent Adjudication Committee (CIAC) reviewed all efficacy and safety events.
Part B was the randomized, open-label, active-controlled part of the study that evaluated the safety and efficacy of twice daily administration of rivaroxaban compared to ASA (usual standard of care) for thromboprophylaxis for 12 months. Patients randomized to rivaroxaban also had PK and PD assessments.
Primary efficacy outcome: Any thrombotic event, venous or arterial, symptomatic or asymptomatic defined as: • The appearance of a new thrombus within the cardiovascular system on either routine surveillance or clinically indicated imaging, or • The occurrence of a clinical event known to be strongly associated with thrombus (e.g., stroke, pulmonary embolism).
All efficacy outcomes were adjudicated by the CIAC, blinded to assigned treatment.

clinical = conditions: human, plasma, oral
Procedure: (§1) Rivaroxaban was administered twice daily (BID) in an open-label fashion as a 0.1% (1 mg/mL) oral suspension based on weight as shown in Table 2 (not related to prandial state).
(§2) Blood samples were collected for PK (i.e., plasma rivaroxaban concentrations) and full PD (prothrombin time [PT], activated partial thromboplastin time [aPTT], and anti-factor Xa activity) assessments on the first day of dosing between 0.5 to 1.5 hours and again between 1.5 to 4.0 hours postdose. Additional samples were collected on Day 4, just prior to rivaroxaban administration (PK, PT, aPTT) and again between 0.5 to 1.5 hours (PK, PT, aPTT), 1.5 to 4.0 hours (PK, PT, aPTT), and 6.0 to 8.0 hours (PK and full PD) postdose. At Month 3, samples were collected just prior to rivaroxaban dosing (PK and full PD) and at 0.5 to 1.5 hours postdose (PK, PT, aPTT) and 2.5 to 4 hours postdose (PK, PT, aPTT). An additional random sample (PK, PT, and aPTT) was collected at Month 12.
(§3) In Part B, blood samples were collected for assessment of PT and aPTT before the first dosing; PK and full PD samples were collected between 0.5 to 1.5 hours and again between 1.5 to 4.0 hours after the first dose. At Month 3, PK and full PD samples were collected just prior to rivaroxaban administration and again between 0.5 to 1.5 hours, and 2.5 to 4.0 hours postdose. An additional random sample (PK, PT, and aPTT) was collected at Month 12.
(§4) Blood samples for PK or PD assays were centrifuged, and the resulting plasma samples were frozen and stored below −15° C. until analyzed. Rivaroxaban plasma concentrations were determined using the validated liquid chromatography/mass spectrometry/mass spectrometry (LC-MS/MS) method with a lower limit of quantitation (LLOQ) of 0.5 μg/L. The pharmacodynamic effects of rivaroxaban were assessed by evaluation of prothrombin time (PT), activated partial thromboplastin time (aPTT), and anti-Factor Xa activity (AXA).
(§5) Patients in Part A received their first dose of rivaroxaban oral suspension on Day 1 (on site) and then continued taking rivaroxaban twice daily for 12 days (+9 days) to achieve steady state. PK and PD samples were collected on Day 1 and Day 4 (+2 days) of rivaroxaban administration (Table 3).
(§6) Part A, individual empirical Bayesian post-hoc PK parameters were derived using the existing population PK model from the Einstein Jr program (with the NONMEM option: $ESTIMATION MAXEVAL=0).
(§7) The population PK model used for the rivaroxaban PK profile evaluation was based on the Einstein Jr program. The pharmacokinetics of rivaroxaban were described by a linear two-compartment model with first-order oral absorption and first-order elimination from the central compartment with the absorption rate constant (KA), apparent clearance of the central compartment (CL/F), apparent central volume of distribution (Vc/F), apparent peripheral volume of distribution (Vp/F), and transport rate between the central and peripheral compartments (CI) as structural model parameters. CL/F, Q/F, Vp/F, and Vc/F were fig. allometrically scaled with body weight. Inter-individual variability (IIV) was identified for KA and CL/F. Residual error was described by a proportional error model.

[2] = UNIVERSE study: population PK and steady-state exposure of rivaroxaban in post-Fontan pediatric patients
Procedure: as §1, §2, §3, §4, §5, §6, §7

[3] = UNIVERSE primary efficacy outcome: any thrombotic event (CIAC adjudicated); format: in vivo, pediatric patients; conditions: Part A N=12; up to end of treatment; full analysis set
[4] = 10 mg QD, N=140, cited from earlier work
[5] = human, in vivo
From the text: The methods and products of the invention concern dosages that are clinically proven safe and/or effective. Adverse events that impact whether the inventive dose, dosing regimen, treatment or method with rivaroxaban of the present invention are safe are adverse bleeding events that include, for example, major bleeding. “Major bleeding” as used herein is defined in accordance with ISTH criteria as clinically overt bleeding associated with a decrease in hemoglobin of […], a transfusion of the equivalent of […] of packed red blood cells or whole blood, or bleeding at a critical site, or with fatal outcome. Other adverse events include clinically relevant non-major bleeding and trivial (minimal) bleeding.
The primary safety outcome was ISTH defined major bleeding. Major bleeding was defined as overt bleeding and: […]
1) Associated with a fall in hemoglobin of 2 g/dL or more; or 2) Leading to a transfusion of the equivalent of 2 or more units of packed red blood cells or whole blood in adults; or 3) Occurring in a critical site: intracranial, intraspinal, intraocular, pericardial, intraarticular, intramuscular with compartment syndrome, retroperitoneal; or 4) Contributing to death.
The secondary safety outcomes were: Clinically relevant non-major bleeding and trivial (minimal) bleeding events.

[6] = Part A N=12, up to end of treatment
[7] = Part B rivaroxaban N=64, aspirin N=34, up to end of treatment
[8] = rivaroxaban Part A+B total N=76, up to end of treatment
[9] = UNIVERSE Part A, weight-based dose regimen BID, N=12
[10] = UNIVERSE all patients, weight-based dose regimen BID, N=76
[11] = full UNIVERSE data-set, population PK model
[12] = full UNIVERSE data-set, subject with body weight of 15 kg

In the case of `O=C(NC[C@H]1CN(c2ccc(N3CCOCC3=O)cc2)C(=O)O1)c1ccc(Cl)s1` [Rivaroxaban, 5-chloro-N-({(5S)-2-oxo-3-[4-(3-oxo-4-morpholinyl)phenyl]-1,3,oxazolidin-5-yl}methyl)-2-thiophenecarboxamide], the “Correlation (r) of anti-factor Xa with rivaroxaban plasma concentrations” value (factor Xa; UNIVERSE Part A) is reported as 0.932, the “R-squared of anti-factor Xa activity vs plasma rivaroxaban concentrations” value (factor Xa; UNIVERSE study) is reported as 0.901 and the “Ischemic stroke, subjects n (%)” value [1, 6] is reported as 0. For the same compound, the “Other thrombosis, subjects n (%)” value [1, 6] was 0, the “All-cause mortality, No. of subjects with event” value [1, 7] was 0 and the “Any thrombotic event (primary efficacy outcome), % of subjects” value [1, 7] was “(1.6%)”. The “Arterial/intracardiac thrombosis, subjects n (%)” value [1, 7] was 0, the “Ischemic stroke, subjects n (%)” value [1, 7] was 0 and the “Other thrombosis, subjects n (%)” value [1, 7] was 0. For the same compound, the “Pulmonary embolism, % of subjects” value [1, 7] was “(1.6%)”, the “Venous thromboembolism, % of subjects” value [1, 7] was “(1.6%)” and the “Venous thromboembolism, No. of subjects with event” value [1, 7] was 1/64. The “Venous thrombosis, subjects n (%)” value [1, 7] was 0, the “Any thrombotic event (primary efficacy outcome), % of subjects” value ([1]; rivaroxaban Part A+B total N=76) was 3% and the “Arterial/intracardiac thrombosis, subjects n (%)” value [1, 8] was 0. For the same compound, the “Ischemic stroke, subjects n (%)” value [1, 8] was 0, the “Other thrombosis, subjects n (%)” value [1, 8] was 0 and the AUC(0-t) (clinical) was 1.48 µg·h/mL. For the same compound, the Cmax (clinical) was 0.124 µg/mL, the “Individual values for AUCss,24h, Cmax,ss and Ctrough,ss vs adult reference range” value ([2]; UNIVERSE Part A) was “within the adult reference range” and the “AUC24h,ss geometric mean (90% CI)” value [2, 9] was 1.698 µg·h/mL. For the same compound, the “AUC24h,ss median (range)” value [2, 9] was 1.718 µg·h/mL, the “Cmax,ss median (range)” value [2, 9] was 0.1218 µg/mL and the “Ctrough,ss geometric mean (90% CI)” value [2, 9] was 0.0286 µg/mL. The “Ctrough,ss median (range)” value [2, 9] was 0.029 µg/mL, the “AUC24h,ss geometric mean (90% CI)” value [2, 10] was 1.44 µg·h/mL and the “Cmax,ss geometric mean (90% CI)” value [2, 10] was 0.109 µg/mL. For the same compound, the “Cmax,ss median (range)” value [2, 10] was 0.1133 µg/mL, the “Ctrough,ss geometric mean (90% CI)” value [2, 10] was 0.0228 µg/mL and the “Ctrough,ss median (range)” value [2, 10] was 0.0232 µg/mL. For the same compound, the “Body weight exponent for Vc/F” value [2, 11] was 1.20, the “First-order absorption rate constant” value [2, 11] was 1.12 h⁻¹ and the “CL/F (population PK estimate)” value [2, 12] was 3.30 L/h. The “Q/F (population PK estimate)” value [2, 12] was 1.09 L/h, the “Vc/F (population PK estimate)” value [2, 12] was 17.6 L and the “Arterial/intracardiac thrombosis, subjects n (%)” value [3] was 0. The “Primary efficacy outcome (any thrombotic event), subjects n (%)” value [3] was 1 (8.3%) and 1 (8%), the “Pulmonary embolism, subjects n (%)” value [3] was 0 and the “AUC24h,ss geometric mean (90% CI)” value ([4]; Adult reference ODIXa-HIP-OD) was 1.494 µg·h/mL. For the same compound, the “AUC24h,ss median (range)” value ([4]; Adult reference) was 1.452 µg·h/mL, the “Cmax,ss geometric mean (90% CI)” value ([4]; Adult reference) was 0.1258 µg/mL and the “Cmax,ss median (range)” value ([4]; Adult reference) was 0.1276 µg/mL. For the same compound, the “Ctrough,ss geometric mean (90% CI)” value ([4]; Adult reference) was 0.0139 µg/mL, the “Ctrough,ss median (range)” value ([4]; Adult reference) was 0.0143 µg/mL and the “CRNM bleeding: Hematoma, subjects n (%)” value [5] was 0. The “CRNM bleeding: Subconjunctival, subjects n (%)” value [5] was 0, the “Clinically relevant non-major (CRNM) bleeding, % of subjects” value [5] was “(6.3%)” and the “Clinically relevant non-major (CRNM) bleeding, No. of subjects with event” value [5] was 4/64. For the same compound, the “Clinically relevant non-major bleeding, subjects n (%)” value [5] was 5, the “Fall in hemoglobin ≥2 g/dL or transfusion of the equivalent ≥2 units of packed red blood cell or whole blood in adults, No. of subjects with event” value [5] was 1/64 and the “Fall in hemoglobin ≥2 g/dL or transfusion of the equivalent ≥2 units, % of subjects” value [5] was “(1.6%)”. The “Fatal or critical site bleeding, No. of subjects with event” value [5] was 0, the “Major and clinically relevant non-major bleeding, % of subjects” value [5] was “(7.8%)” and the “Major and clinically relevant non-major bleeding, No. of subjects with event” value [5] was 5/64. The “Major bleeding (ISTH), % of subjects” value [5] was “(1.3%)”, the “Major bleeding (ISTH), subjects n (%)” value [5] was 1 and the “Major bleeding (primary safety outcome), % of subjects” value [5] was “(1.6%)”. For the same compound, the “Major bleeding (primary safety outcome), No. of subjects with event” value [5] was 1/64, the “Trivial (minimal) bleeding, % of subjects” value [5] was “(32.8%)” and the “Trivial (minimal) bleeding, No. of subjects with event” value [5] was 21/64. The “Trivial bleeding, subjects n (%)” value [5] was 24 and the “Trivial bleeding: GI-Lower, subjects n (%)” value [5] was 0.
